Measured values reported in patent US11173446B2, “Process for removal of acid gases from a fluid stream” (BASF SE, priority 2017, dated 2021).

Experiments:
[1] = Volatility of 30% by weight aqueous amine solutions (Example 4); format: physicochemical; conditions: 30% by weight aqueous solutions, 50° C.
[2] = pKa of the amino groups by titration with hydrochloric acid (Example 5); format: physicochemical; conditions: 20° C.
From the text: An aqueous amine solution (0.005 mol/L) was titrated with hydrochloric acid (0.1 mol/L).

CC(C)(C)NCC(O)CO (centres unmarked) [TBAPD, 3-(tert-butylamino)propane-1,2-diol]
volatility, comparison in words [1]: lower volatility compared to the M3ETB, TBAEE and MDEA
pKA value, comparison in words [2]: greater than that of MDEA
